Laboratory results published in patent US20050075398A1, “Neuroprotectin D1 protects against cellular apoptosis, stroke damage, alzheimer's disease and retinal diseases” (priority 2003, published 2005).

Key:
[1] = system: infarcted volume (stroke volume); experiment: Stroke volume by TTC staining after MCA-O; format: in vivo, mouse
Procedure: Assessment of stroke volume. Forty-eight hours after MCA-O, mice were killed, and brains were dissected and immersed in ice-cold saline. The dissected brains were embedded in agar blocks and sectioned into coronal slices 1 mm thick by a vibratome (Vibratome Co. St. Louis, Mo.). Sections were incubated at room temperature in a 3% buffered solution of 2,3,5,-triphenyltetrazolium chloride (TTC). Once color developed (10 to 15 min), sections were fixed in 10% buffered formalin, and kept at 4° C. until images were recorded by a camera (Cool-snap, Nikon) mounted to a dissecting microscope. In the digital images, total brain area and stroke areas were analyzed and calculated by Adobe Photoshop software. Serial sections were made for all animals. (Digital images not included).
To test for in vivo bioactivity of 10,17S-docosatriene (NPD1) in brain during focal ischemic stroke, Alzet mini-pumps were implanted into the third ventricle to deliver the lipid messenger over the 48 h reperfusion following 1 h of MCA-O. Brain coronal sections were incubated at room temperature in 3% buffered TTC (triphenyltetrazolium chloride) for approximately 10-15 min. The docosanoid 10,17S-docosatriene (NPD1) was infused (1 μg over 48 h by implanted Alzet mini-pumps). In photos, colorless areas indicated mitochondrial damage reflecting the inability to metabolize TTC. […]

COX-2 expression = experiment: COX-2 mRNA abundance in ipsilateral hippocampus after MCA-O; format: in vivo, mouse; settings: 1 h MCA-O, 2 h reperfusion, infused into third ventricle (NPD1 0.16 μg/ml)
Procedure: (§1) COX-2 RNA abundance in hippocampus and HN cells. Abundance of human-specific COX-1 and COX-2 RNA message was assayed using RT-PCR as described in Bazan, N. G., and Lukiw, W. J. (2002) J. Biol. Chem. 277, 30359-30367.
To determine COX-1 and COX-2 expression, mRNA abundance in the ipsilateral hippocampus was measured. […] A 3-fold increase of COX-2 was seen due to MCA-O reperfusion (FIG. 7C). The infusion of the precursor DHA as well as its product 10,17S-docosatriene (NPD1) inhibited COX-2 expression by 14% and 52%, respectively.

AP1-DNA binding activity = experiment: EMSA of AP1 in IL-1β-exposed human neural progenitor cells; format: cell-based; settings: HN progenitor cells
Procedure: (§2) Human neural (HN) progenitor cells in primary culture. HN cells were grown to ˜70% confluence (˜50,000 cells per 3.5-cm diameter well) in 6-well COSTAR plates at 37° C., 5% CO2/20% O2/75% N2 in humidified air at 1 atm (normoxic conditions) in NPMM medium (Clonetics CC-4241) supplemented with hFGF, NSF-1, hEGF, GA-1000, as described by the manufacturer (Clonetics, Walkersville, Md.). HN cells tested negative for HIV-1, hepatitis B and C, mycoplasma, bacteria, yeast, and fungi, and positive for the glial and neuronal markers GFAP, MAP2, and β-tubulin III (Clonetics). […]
(§3) Electrophoretic mobility-shift assay (EMSA) of human AP1, HIF-1α, NF-κBp50/p65, and STAT-1α. Nuclear protein extracts (NPXTs) were prepared from one to three 3.5 cm-diameter wells of HN cells and quantitated. NPXTs (5 μg) derived from HN cells were incubated with[γ-^32P]-ATP (˜3000 Ci/mmol)-end-labeled AP1, HIF-1α, NF-κκBp50/p65, or STAT-1α consensus and mutant oligonucleotides in 5-μl volumes, reacted for 30 min on ice, analyzed on 5% or 10% acrylamide/90 mM Tris-borate pH 8.4, 1 mM EDTA (TBE) gels, dried onto 2-mm Whatman filter paper at 80° C. for 2 h, and phosphorimaged using a Typhoon Variable Mode Imager (Amersham Pharmacia Biotech, Piscataway, N.J. ).

STAT-1 = experiment: EMSA of STAT-1 in IL-1β-exposed human neural progenitor cells; format: cell-based; settings: HN progenitor cells
Procedure: as §2, §3

COX-1 mRNA = COX-1 mRNA in human neural progenitor cells; format: cell-based
Procedure: Human neural (HN) progenitor cells in primary culture. HN cells were grown to ˜70% confluence (˜50,000 cells per 3.5-cm diameter well) in 6-well COSTAR plates at 37° C., 5% CO2/20% O2/75% N2 in humidified air at 1 atm (normoxic conditions) in NPMM medium (Clonetics CC-4241) supplemented with hFGF, NSF-1, hEGF, GA-1000, as described by the manufacturer (Clonetics, Walkersville, Md.). HN cells tested negative for HIV-1, hepatitis B and C, mycoplasma, bacteria, yeast, and fungi, and positive for the glial and neuronal markers GFAP, MAP2, and β-tubulin III (Clonetics). After two weeks of development, HN cells were exposed to human recombinant interleukin 1-beta (IL-1β) (10 ng/ml) for 3 h in the presence or absence of 0.03, 0.3, 3.0, 30, and 300 nM 10,17S-docosatriene (NPD1), DHA, or PBS pH 7.4 (control). RNA and protein were quickly isolated using Trizol Reagent (Invitrogen, Carlsbad, Calif.) and stored at −81° C. within minutes of isolation.
as §1

IL-1β gene expression = experiment: HGU133 GeneChip DNA array in HN cells: IL-1β; format: cell-based, human; settings: Aβ42 25 μM, DHA 50 nM or NPD1 50 nM, 18 h, nsc = no significant change
Bcl-2 = experiment: Western blot of Bcl-2 in ARPE-19 cells under TNFα/H2O2; format: cell-based, human; settings: 50 nM; TNFα plus H2O2 (400 or 800 μM) 6 h
Procedure: Analysis of pro- and anti-apoptotic proteins in ARPE-19 cells: Bcl-2 family proteins were analyzed by Western-blot analysis. In brief, 20-μg equivalents of each cell extract were subjected to electrophoresis on a 8-16% gel (Promega, Madison, Wis.) at 125 volts for 2 h. The proteins were transferred to nitrocellulose membrane at 30 volts for 1 h at 4° C. The membranes were subjected to treatment with primary antibodies of Bcl-2, Bcl-xL, Bax, and Bad for 1 h at room temperature, and probed 30 min with secondary antibody, goat anti-rabbit Ig:HRPO and HRP-conjugated anti-biotin antibody. (BD Sciences—Pharminogen, San Diego, Calif.) Then proteins were evaluated using an ECL kit. (Amersham Biosciences Corp., Piscataway, N.J.)
Using the same TNFα/H2O2 concentrations, Bcl-2 proteins were assayed. Cells were grown for 72 h after plating, placed in serum-free medium for 1 h, then incubated with TNFα/H2O2 for 6 h. Protein expression and Western-blot analysis were performed as described in Example 13. Data in FIGS. 14A, 14B, 14C and 14D represent four independent experiments with triplicate samples in each case. Anti-apoptotic protein Bcl-xL was enhanced in ARPE-19 cells by TNFα/H2O2 (800 μM) (FIG. 14B, first bar), whereas Bcl-2 was not changed (FIG. 14A, first bar).

`CC/C=C\C[C@H](O)\C=C/C=C/C=C/[C@H](O)C/C=C\C/C=C\CCC(=O)O` [NPD1, 10,17S-docosatriene] was tested. Which “reduction of stroke volume” value ([1]; 1 μg over 48 h at 250 nl/h intracerebroventricular, after 48 h) did it give?
Its value is 50%.

And the “focal infarcted volume, percentage of total volume” value ([1]; 1 μg over 48 h by Alzet mini-pump into third ventricle, 1 h MCA-O, 48 h reperfusion, vehicle about 30%)?
Its value is “less than 15%”.

And the “inhibition of COX-2 expression (mRNA)” value (COX-2 expression)?
Its value is 52%.

And the “effect on IL-1β-induced AP1-DNA binding activity” value (AP1-DNA binding activity)?
Its value is “did not affect”.

What about the “effect on STAT-1” value (STAT-1) of the same molecule?
The value was “unaffected”.

And the “effect on basal level of COX-1 mRNA” value (COX-1 mRNA)?
Its value is “seemed to decrease”.

What about the “IL-1β gene expression, fold change over untreated controls” value (IL-1β gene expression) of the same molecule?
The value was “nsc”.

What about the “effect on Bcl-2 expression” value (Bcl-2) of the same molecule?
The value was “increased expression”.
